From patent publication US9034403B2, “Yeast extract containing γ-Glu-X or γ-Glu-X-Gly and a method for producing the same” (AJINOMOTO CO., INC., priority 2010, dated 2015)
Numbered stars: 1 amine (or outer) side, 2 acyl side, 3 side chain; on linkers, the order of the positions; unused ones are H or OH. Square brackets hold non-standard residues; d marks the D form. Peptide text beside a SMILES is read from it. γGlu = O=C(O)[C@H](CCC(=O)[*:2])N[*:1]; Nva = CCC[C@H](N)C(=O)O

Key:
[1] = system: Saccharomyces cerevisiae S288C strain; assay: Addition of peptide to medium of S288C strain; peptide content in dry cells and in extract by LC-MS/MS; type: cell-based
Protocol: Absorbance of the obtained culture broth was measured, the culture broth was inoculated into SD medium (400 ml in a 2 L-volume conical flask with baffle fins, a pluratity of flasks) so that OD660 was 0.01 at the start of the culture (absorbance was measured by using DU640 SPECTROPHTOMETER, BECKMAN COULTER), and culture was performed at 30° C. for 19 hours with shaking by rotation at a velocity of 120 rpm. From the obtained culture broth, 400 OD units of the cells (1 OD unit is defined as cells contained in 1 ml of culture broth of which OD660 is 1) were collected by centrifugal separation. The supernatant was removed as much as possible, and the residual cells were suspended in 45 ml of Milli-Q water. The cells were collected again by centrifugal separation, and resuspended in 45 ml of Milli-Q water. By repeating this operation 3 times in total, the medium was completely removed from the cells. The washed cells were suspended in about 1.5 ml of Milli-Q water, and the suspension was heated at 70° C. for 10 minutes. By this step, the extractable components contained in the cells were extracted. Then, the extract and the cell residue were separated by centrifugation.
Cell debris were removed from the extract using a centrifugal filtration membrane of 10 kDa (Amicon Ultra—0.5 mL 10K, MILLIPORE, Catalogue Number UFC501096)), the obtained fraction was derivatized with the AQC reagent in the same manner as that used in Example 1, and γ-Glu-Val-Gly and γ-Glu-Val were measured by LC-MS/MS. Separately, the amount of GSH in the cells was measured in a conventional manner (GSH in the extract was derivatized by using a fluorescence reagent ABD-F that binds to thiol group, separated and quantified by HPLC). Furthermore, dry cell weight was measured after the washed cells were dried at 104° C. for 4 hours. From the amounts of γ-Glu-Val-Gly and γ-Glu-Val in the extract prepared from the cells that was contained in a certain volume of culture broth and dry cell weight measured as described above, the amount of these peptides based on weight of dried cells was calculated. […]
One loop of the S288C strain was inoculated into SD medium (50 ml in a 500 ml-volume Sakaguchi flask), and cultured at 30° C. for 24 hours with shaking at a velocity of 120 rpm. Absorbance of the obtained culture broth was measured, the culture broth was inoculated into SD medium (400 ml in a 2 L-volume conical flask with baffle fins, two or more flasks) so that OD660 was 0.01 at the start of the culture, and culture was performed at 30° C. for 19 hours with shaking by rotation at a velocity of 120 rpm. After 19 hours, γ-Glu-Val-Gly aqueous solutions of various concentrations were added to obtain predetermined concentrations, and the culture was continued for 1 hour. Using these culture broths, the γ-Glu-Val-Gly content in dry cells was calculated in the same manner as in Example 2. Furthermore, the solid content of the extract was calculated, and the amount of γ-Glu-Val-Gly in the solid content was also calculated. […]
The cells were collected from the total culture broth, and washed in the same manner as that of Example 2. The washed cells in an amount of 400 OD units were suspended in 1.5 ml of Milli-Q water. This suspension was maintained at 70° C. for 10 minutes to produce an extract from the yeast cells. Furthermore, the suspension was centrifuged to remove the cell residues and thereby collect only the extract. The γ-Glu-Val-Gly concentration of this extract (extract of addition experiment) was measured to be about 300 ppm, and solid content was about 1%. The γ-Glu-Val-Gly concentration in an extract prepared in the same way but without adding γ-Glu-Val-Gly to the culture broth (extract of no addition experiment) was below the quantitation limit, and solid content was about 1%.
One loop of the S288C strain was inoculated into SD medium (50 ml in a 500 ml-volume Sakaguchi flask), and cultured at 30° C. for 24 hours with shaking at a velocity of 120 rpm. […]

[2] = system: S288C, Y3560 and YEp24-PTDH3-GSH2 strains; assay: Influence of YEp24-PTDH3-GSH2 on γ-EV to γ-EVG conversion; type: cell-based, Saccharomyces cerevisiae; settings: 18 hours
Protocol: Each of the S288C ura3Δ227/YEp24-PTDH3-GSH2, Y3560/YEp24-PTDH3-GSH2, S288C and Y3560 strains, was cultivated in 50-ml tubes containing 10 ml of SD medium with 100 ppm γ-Glu-Val as a final concentration. For Y3560 strain medium was also supplemented with uracil (20 mg/L). Tubes were inoculated by overnight culture of corresponding strain at initial OD600=0.01, and placed in rotation shaker at 240 rpm, 30° C. for 18 hours. Then cells from 2 ml of broth culture were harvested by centrifugation, and were washed by 1 ml of milliQ water three times. Then washed cells were suspended in 1 ml of milliQ and were incubated at 70° C. for 10 min with a water bath to extract intracellular materials. After cell debris and the extract were separated by centrifugation, aqueous phase was transferred to clean vial and then the vial was vacuum-dried. Thus the dried extract was prepared. Then γ-Glu-Val-Gly in the dried extract was measured with LC-MS/MS analysis as it is described in example 12.

[3] = system: GSH2 overexpressing strain PG2 and WT strain; assay: Addition of γ-Glu-Val to GSH2 overexpressing strain PG2 and WT strain, γ-Glu-Val-Gly content; type: cell-based, Saccharomyces cerevisiae
Protocol: GSH2 overexpressing strain PG2 was constructed basically in the same manner as described in Example 10 except that AJ14956 described in Example 19 was used instead of ura3Δ0 from S288C. As a control, WT strain was obtained by returning the deleted URA3 gene into wild type gene from AJ14956 in the same manner described in Example 10 and Example 19.
One loop of the WT strain or PG2 strain was inoculated into SD medium (50 ml in a 500 ml-volume Sakaguchi flask), and cultured at 30° C. for 24 hours with shaking at a velocity of 120 rpm. Absorbance of the obtained culture broth was measured, and the culture broth was inoculated into the SD medium supplemented with various concentrations of γ-Glu-Val (400 ml in a 2 L-volume conical flask with baffle fins, two or more flasks) so that OD660 was 0.01 at the start of the culture, and culture was performed at 30° C. with shaking by rotation at a velocity of 120 rpm until OD660 reached to the predetermined value. Then, the amount of γ-Glu-Val-Gly in dry cells and the solid content of the extracted extract were calculated in the same manner described previously. As shown in the results, PG2, a GSH2 overexpressing strain, took up γ-Glu-Val from the medium and converted it into γ-Glu-Val-Gly in the cell.

[4] = system: GSH1 overexpressing strain AG1; assay: Addition of nVal to GSH1 overexpressing strain AG1, γ-Glu-nVal content; type: cell-based, Saccharomyces cerevisiae; settings: for γ-Glu-nVal content: culture continued 1 hour
Protocol: Then, this AG1 strain was cultivated in SD medium supplemented with nVal. More specifically, one loop of the AG1 strain was inoculated into SD medium (50 ml in a 500 ml-volume Sakaguchi flask), and cultured at 30° C. for 24 hours with shaking at a velocity of 120 rpm. Absorbance of the obtained culture broth was measured, and the culture broth was inoculated into SDP medium (400 ml in a 2 L-volume conical flask with baffle fins, two or more flasks) so that OD660 was 0.01 at the start of the culture, and culture was performed at 30° C. for 23 hours with shaking by rotation at a velocity of 120 rpm. After 23 hours, nVal solution was added to a final concentration of 10 ppm or 100 ppm, and the cultures were continued for 1 hour. Then, the amount of γ-Glu-nVal was measured in the same manner described in the experimental example 15. The γ-Glu-nVal content was 0.07% when 10 ppm of nVal was added to the medium and the γ-Glu-nVal content was 0.37% when 100 ppm of nVal was added to the medium. Then, yeast extract containing γ-Glu-nVal was prepared from the broth culture cultivated with 100 ppm nVal basically in the same manner as described in Example 16. This yeast extract contained 1.44% γ-Glu-nVal at the dry matter base. This yeast extract would give strong kokumi for initial and middle taste from its character.

[5] = system: S288C PADH1-HGT1 (Hgt1p overproducing strain) and S288C; assay: Peptide uptake of Hgt1p overproducing strain and parental strain S288C, intracellular content on dry weight cell; type: cell-based, Saccharomyces cerevisiae; settings: S288C PADH1-HGT1; γ-Glu-nVal-Gly 100 ppm added to the medium
Protocol: One loop of the S288C strain was inoculated into SD medium (50 ml in a 500 ml-volume Sakaguchi flask), and cultured at 30° C. for 24 hours with shaking at a velocity of 120 rpm. Absorbance of the obtained culture broth was measured, the culture broth was inoculated into SD medium (400 ml in a 2 L-volume conical flask with baffle fins, two or more flasks) so that OD660 was 0.01 at the start of the culture, and culture was performed at 30° C. for 19 hours with shaking by rotation at a velocity of 120 rpm. After 19 hours, γ-Glu-Val-Gly aqueous solutions of various concentrations were added to obtain predetermined concentrations, and the culture was continued for 1 hour. Using these culture broths, the γ-Glu-Val-Gly content in dry cells was calculated in the same manner as in Example 2. Furthermore, the solid content of the extract was calculated, and the amount of γ-Glu-Val-Gly in the solid content was also calculated.
The S288C PADH1-HGT1, Hgt1p overproducing strain obtained in Example 12, and its parental strain S288C, were evaluated for their ability to take up γ-Glu-Val-Gly in the same manners as described in Example 4. The amount of γ-Glu-Val-Gly added into the medium was 100 ppm as a final concentration. As a result, intracellular content of γ-Glu-Val-Gly in S288C on the dry weight cell was about 0.9%, but intracellular content of γ-Glu-Val-Gly in S288C PADH1-HGT1 on the dry weight cell was about 4.9%.
S288C PADH1-HGT1, Hgt1p overproducing strain obtained in Example 12, and its parental strain S288C were evaluated for their γ-Glu-nVal-Gly uptake abilities in the same manners as described in Example 4 and Example 13. The amount of γ-Glu-nVal-Gly added to the medium was 100 ppm as a final concentration.

[6] = 25 ppm γ-Glu-Val added to medium after 19 hours, culture continued 1 hour
[7] = 100 ppm γ-Glu-Val added to medium after 19 hours, culture continued 1 hour
[8] = 200 ppm γ-Glu-Val added to medium after 19 hours, culture continued 1 hour
[9] = γ-Glu-Val 100 ppm added to SD medium in advance, culture 24 hours
[10] = PG2 strain, γ-Glu-Val in the medium 100 ppm, CT 21 hr
[11] = PG2 strain, γ-Glu-Val in the medium 500 ppm, CT 21 hr
[12] = WT strain, γ-Glu-Val in the medium 100 ppm, CT 19 hr
[13] = WT strain, γ-Glu-Val in the medium 500 ppm, CT 19 hr

## CC(C)[C@H](NC(=O)CC[C@H](N)C(=O)O)C(=O)O [γ-Glu-Val]
[1]; [6]
  γ-Glu-Val content in dry cells: 1468 ppm
  γ-Glu-Val content in solid content of extract: 8491 ppm
[1]; [7]
  γ-Glu-Val content in dry cells: 6369 ppm
  γ-Glu-Val content in solid content of extract: 27599 ppm
[1]; [8]
  γ-Glu-Val content in dry cells: 10930 ppm
  γ-Glu-Val content in solid content of extract: 49474 ppm
[1]; [9]
  γ-Glu-Val present in dry cells: 7171 ppm
  γ-Glu-Val-Gly present in dry cells: 20 ppm
[2]; strain S288C ura3Δ227/YEp24-PTDH3-GSH2, 100 ppm γ-Glu-Val in SD medium
  γ-EVG: 705 μg 1^−1 OD600^−1
[2]; strain S288C, 100 ppm γ-Glu-Val in SD medium
  γ-EVG: 6 μg 1^−1 OD600^−1
[2]; strain Y3560/YEp24-PTDH3-GSH2, 100 ppm γ-Glu-Val in SD medium
  γ-EVG: 2039 μg 1^−1 OD600^−1
[2]; strain Y3560, 100 ppm γ-Glu-Val in SD medium with uracil
  γ-EVG: 110 μg 1^−1 OD600^−1
[3]; [10]
  γ-Glu-Val-Gly content in dry cells: 81 ppm
  γ-Glu-Val-Gly content in solid content of extract: 384 ppm
[3]; [11]
  γ-Glu-Val-Gly content in dry cells: 123 ppm
  γ-Glu-Val-Gly content in solid content of extract: 585 ppm
[3]; [12]
  γ-Glu-Val-Gly content in dry cells: 7 ppm
  γ-Glu-Val-Gly content in solid content of extract: 29 ppm
[3]; [13]
  γ-Glu-Val-Gly content in dry cells: 7 ppm
  γ-Glu-Val-Gly content in solid content of extract: 29 ppm

## CCC[C@H](NC(=O)CC[C@H](N)C(=O)O)C(=O)O [γ-Glu-nVal]
[1]; γ-Glu-nVal added into the medium at 10 ppm
  γ-Glu-nVal content in the dry cell: about 0.03%
[1]; γ-Glu-nVal added into the medium at 100 ppm
  γ-Glu-nVal content in the dry cell: about 0.13%

## CCC[C@H](N)C(=O)O [nVal, norvaline]
[4]; 10 ppm of nVal added after 23 hours
  γ-Glu-nVal content: 0.07%
[4]; 100 ppm of nVal added after 23 hours
  γ-Glu-nVal content: 0.37%
[4]; yeast extract from broth culture cultivated with 100 ppm nVal
  γ-Glu-nVal in yeast extract at the dry matter base: 1.44%

## CCC[C@H](NC(=O)CC[C@H](N)C(=O)O)C(=O)NCC(=O)O [γ-Glu-nVal-Gly] (γGlu-[Nva]-Gly-OH)
[1]; 50 ppm γ-Glu-nVal-Gly added after 19 hours, culture continued 1 hour, 400 OD units in 1.5 ml, solid content about 1%
  γ-Glu-nVal-Gly concentration of extract: about 100 ppm
[1]; γ-Glu-nVal-Gly added into the medium at 10 ppm
  γ-Glu-nVal-Gly content in the dry cell: about 0.07%
[1]; γ-Glu-nVal-Gly added into the medium at 100 ppm
  γ-Glu-nVal-Gly content in the dry cell: about 0.09%
[5]
  intracellular content of γ-Glu-nVal-Gly on the dry weight cell: about 2.84%
